Here are results for 2 substances from patent US4469795A, “Radioassay for monosialoglycosphingolipid (GM1) ganglioside concentration” (priority 1981, dated 1984).

In this test the test system is iodotoxin binding to liver membranes. The arrangement: species or system rat.

In the case of cholera toxin, the “inhibition of iodotoxin binding to liver membranes by the unlabelled enterotoxin” value is reported as “did not occur” and the “reversal of inhibition of iodotoxin binding to liver membranes” value is reported as “greater than 92%”.

Take “monosialoglycosphingolipid GM1 ganglioside”: the “inhibition of liver membrane toxin binding” value is given as “greater than 94%” and the “time until binding of iodotoxin to GM1 ganglioside is complete” value is listed as “thirty”.
